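Test compounds were applied to cells in 96-well plates for 48 hours at 5 doses. GI50: concentration for 50% inhibition of growth.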 Calls of active or inactive are those of the source. No stated cut-off is given here; in the data, active = GI50 up to about 1.1 µM and inactive = higher.
Tests used:
Assay in all cases: inhibition of tumour cell growth, NCI panel, 48 h
A498 = tested on: A498
KM-20L2 = tested on: KM-20L2
OVCAR-3 = tested on: OVCAR-3
SR = tested on: SR
HCT-15 = tested on: HCT-15
NCI-H460 = tested on: NCI-H460
RPMI-8226 = tested on: RPMI-8226
Malme-3M = tested on: Malme-3M
K562 = tested on: K562
OVCAR-8 = tested on: OVCAR-8
ACHN = tested on: ACHN
NCI-H522 = tested on: NCI-H522
HL-60 = tested on: HL-60
MDA-MB-231 = tested on: MDA-MB-231
PC-3 = tested on: PC-3
NCI/ADR-RES = tested on: NCI/ADR-RES
BT-549 = tested on: BT-549
DU-145 = tested on: DU-145
Hs-578T = tested on: Hs-578T

Structure (SMILES)	GI50 (A498)	GI50 (KM-20L2)	GI50 (OVCAR-3)	GI50 (SR)	GI50 (HCT-15) [µM]	GI50 (NCI-H460)	GI50 (RPMI-8226)	GI50 (Malme-3M)	GI50 (K562)	GI50 (OVCAR-8)	GI50 (ACHN)	GI50 (NCI-H522)	GI50 (HL-60)	GI50 (MDA-MB-231)	GI50 (PC-3)	GI50 (NCI/ADR-RES)	GI50 (BT-549)	GI50 (DU-145)	GI50 (Hs-578T)
C[N+](C)(C)CCc1ccccc1	> 100 µM (inactive)	> 100 µM (inactive)	> 100 µM (inactive)	> 100 µM (inactive)	> 100	> 100 µM (inactive)	> 100 µM (inactive)	> 100 µM (inactive)	> 100 µM (inactive)	> 100 µM (inactive)	> 100 µM (inactive)	> 100 µM (inactive)	> 100 µM (inactive)						
O=C(CC(=O)n1nc(-c2ccccc2)c(/N=N/c2ccc([N+](=O)[O-])cc2)c1-c1ccccc1)Nc1ccc(Cl)cc1		3.25 µM (inactive)	16 µM (inactive)	22.4 µM (inactive)		30.1 µM (inactive)	30.2 µM (inactive)	19 µM (inactive)	4.19 µM (inactive)	35.8 µM (inactive)	2.07 µM (inactive)	23.2 µM (inactive)	17 µM (inactive)						
O=C(Cc1ccc(F)cc1)NC1=C(Cl)C(=O)c2ccccc2C1=O		17.7 µM (inactive)	2.75 µM (inactive)	0.481 µM (active)	1.31	3.47 µM (inactive)	0.262 µM (active)	2.77 µM (inactive)	1.54 µM (inactive)	1.92 µM (inactive)	1.47 µM (inactive)	0.297 µM (active)	0.0916 µM (active)						
O=C1/C(=C/c2ccc(Cl)cc2)CCC1CNc1ccc(Cl)cc1 (centres undefined)	14.9 µM (inactive)	1.46 µM (inactive)	7.18 µM (inactive)	2.23 µM (inactive)	2.37	7.96 µM (inactive)	0.78 µM (active)	18 µM (inactive)	0.249 µM (active)	2.42 µM (inactive)	1.57 µM (inactive)	1.8 µM (inactive)	0.703 µM (active)	6.7 µM (inactive)	10.5 µM (inactive)	26.2 µM (inactive)	24.3 µM (inactive)	13.5 µM (inactive)	16.1 µM (inactive)
COC(=O)C1C=CCON2CCc3c(n(S(=O)(=O)c4ccccc4)c4ccccc34)C12 (centres undefined)	> 100 µM (inactive)	42.1 µM (inactive)	33.7 µM (inactive)	34.1 µM (inactive)	50.8	52.6 µM (inactive)	14.5 µM (inactive)	> 64.7 µM (inactive)	17.9 µM (inactive)	50.9 µM (inactive)	65.3 µM (inactive)	26.9 µM (inactive)	27 µM (inactive)						
C(=C\c1c2oc(-c3ccccc3)cc(-c3ccccc3)c-2c2ccccc12)/C=C1\c2ccccc2-c2c(-c3ccccc3)cc(-c3ccccc3)[o+]c21.[O-][Cl+3]([O-])([O-])[O-]	> 100 µM (inactive)	> 100 µM (inactive)	> 100 µM (inactive)	> 100 µM (inactive)	> 100	> 100 µM (inactive)	> 100 µM (inactive)	> 100 µM (inactive)	> 100 µM (inactive)	> 100 µM (inactive)	> 100 µM (inactive)	> 100 µM (inactive)	> 100 µM (inactive)						
C[N+](C)(C)CC(=O)N/N=C(/C(=O)Nc1ccc(Br)cc1)C1C(=O)NC(=O)NC1=O	> 100 µM (inactive)	> 100 µM (inactive)	> 100 µM (inactive)	> 100 µM (inactive)	> 100	> 100 µM (inactive)	> 100 µM (inactive)	> 100 µM (inactive)	> 100 µM (inactive)		> 100 µM (inactive)	> 100 µM (inactive)	> 100 µM (inactive)						
CN(C)/N=N/c1ccccc1	> 100 µM (inactive)	42.3 µM (inactive)	> 100 µM (inactive)	> 100 µM (inactive)	16.7	98.9 µM (inactive)	> 100 µM (inactive)	> 100 µM (inactive)	> 100 µM (inactive)	> 100 µM (inactive)	25.9 µM (inactive)	21.7 µM (inactive)	> 100 µM (inactive)						
Cc1cc(C)c(-n2c(-c3ccccc3)cs/c2=N\N=C2C=C(C(C)(C)C)C(=O)C(C(C)(C)C)=C2)c(C)c1		> 100 µM (inactive)	> 100 µM (inactive)	> 100 µM (inactive)	> 100	> 100 µM (inactive)	> 100 µM (inactive)	> 100 µM (inactive)	55.8 µM (inactive)	> 100 µM (inactive)	90.2 µM (inactive)	85.1 µM (inactive)	50.5 µM (inactive)						
Cc1ccc(S(=O)(=O)c2ccc(C)cc2[N+](=O)[O-])cc1	19.4 µM (inactive)	> 100 µM (inactive)	46.9 µM (inactive)	79.4 µM (inactive)	> 100	> 100 µM (inactive)	> 100 µM (inactive)	> 100 µM (inactive)	50.5 µM (inactive)		> 100 µM (inactive)	43.7 µM (inactive)	29.3 µM (inactive)						
O=C(/C=C/c1ccc(Cl)c(Cl)c1)c1ccc2ccccc2c1	> 100 µM (inactive)	> 100 µM (inactive)	> 100 µM (inactive)	47.9 µM (inactive)	> 100	37.7 µM (inactive)	> 100 µM (inactive)	> 100 µM (inactive)	> 100 µM (inactive)	> 100 µM (inactive)	> 100 µM (inactive)	88.5 µM (inactive)	32.7 µM (inactive)						
CC[C@]1(O)C(=O)OCc2c1cc1n(c2=O)Cc2cc3c(N)cccc3nc2-1	> 100 µM (inactive)	> 100 µM (inactive)	> 100 µM (inactive)	> 100 µM (inactive)	> 100	> 100 µM (inactive)	> 100 µM (inactive)	> 100 µM (inactive)	> 100 µM (inactive)	> 100 µM (inactive)	> 100 µM (inactive)	> 100 µM (inactive)	> 100 µM (inactive)						
C=C/C=C(\NC(=O)C(Cl)(Cl)Cl)[Si](C)(C)C	> 100 µM (inactive)	> 100 µM (inactive)	> 100 µM (inactive)	> 100 µM (inactive)	> 100	> 100 µM (inactive)	> 100 µM (inactive)	> 100 µM (inactive)	> 100 µM (inactive)	> 100 µM (inactive)	> 100 µM (inactive)	> 100 µM (inactive)	> 100 µM (inactive)						
CN(CCN1C(=O)c2cc([N+](=O)[O-])cc3cc([N+](=O)[O-])cc(c23)C1=O)CCN1C(=O)c2cc([N+](=O)[O-])cc3cc([N+](=O)[O-])cc(c23)C1=O	12.8 µM (inactive)	1.1 µM (active)	0.646 µM (active)		0.482	0.387 µM (active)	0.342 µM (active)	0.815 µM (active)	0.23 µM (active)	0.267 µM (active)	0.264 µM (active)	0.421 µM (active)	0.234 µM (active)						
COc1cc2c(cc1C)[n+]([O-])c(C)c(C(=O)C/C(=N/NC(=O)C[N+](C)(C)C)C(=O)Nc1cccc(Cl)c1C)[n+]2[O-]	> 100 µM (inactive)	> 100 µM (inactive)	> 100 µM (inactive)	> 100 µM (inactive)	> 100	> 100 µM (inactive)	> 100 µM (inactive)	> 100 µM (inactive)	> 100 µM (inactive)	> 100 µM (inactive)	> 100 µM (inactive)	> 100 µM (inactive)	> 100 µM (inactive)						

— ChEMBL document CHEMBL1201862, “PubChem BioAssay data set” (2004)
